Laboratory results: patent US10689384B2, “Imidazo[1,2-a]quinoxalines and derivatives thereof for the treatment of cancer” (Universite de Montpellier, priority 2014, dated 2020)

What was measured:
human cancer cell lines = experiment: In vitro cytotoxicity study, Summarized results 2 (cell line not given); type: cell-based; details: Table 4, Summarized results 2, cell line not stated
Description: (§1) The goal of this protocol is to study the effects of the compounds on the proliferation of various human cancer cell lines in order to evaluate the EC50 and their activity in cellulo.
(§2) The cells are seeded the day before treatment in 96 well plates. Each compound concentration is tested in triplicate. A 96 well plate can contain 3 compounds.
(§3) Stock solutions of the tested compounds are prepared at 10 mM in 100% DMSO and stored at […].
(§4) The analysis is carried out by using the GraphPad PRISM 5.0 software.
(§5) Day 1: the cells are seeded one day before treatment with the compounds in 96 well plates. Cell suspensions for each cancer cell line are prepared with a specific density in a specific culture medium (see preceding table). Next, 100 µL of cell suspension is distributed per well (1×96 well plate per cell line).
(§6) Day 2: 24 hours later, the […] compounds or controls (DMSO) are added to the cells ([…] of a compound solution in its specific medium with a final DMSO concentration of 0.15%).
(§7) Each compound concentration is tested in triplicate (6 concentrations between 10^−9 M and 10^−5 M per compound). The cells are incubated at 37° C. for 72 hours with no new treatment.
(§8) Day 5: 15 minutes before incubation of the cells with MTT (3-[4,5-dimethylthiazol-2-yl]-2,5-diphenyltetrazolium bromide), 10% SDS is added to the control wells to obtain a final concentration of 1%. The positive control of inhibition of proliferation is 1% SDS.
(§9) Once the medium is removed, 100 µL of a solution of MTT in fresh medium is added to each well (10 μL of 10×MTT solution at 5 mg/mL in PBS +[…] of fresh medium) and the plates are incubated for 4 hours at 37° C.
(§10) The MTT reaction is quenched and the medium is homogenized by addition of […] of 10% SDS/0.01 M HCl solution placed in each well. The medium is incubated for 2 hours at 37° C. before measuring its absorbance. Absorbance is measured at 570 nm.

purified tubulin = molecular target: T1, purified tubulin (Sus scrofa, UniProt P02550+P02554); experiment: Effect on the polymerization of purified tubulin (turbidimetry at 350 nm); type: biochemical, pig; details: 2.4 μM tubulin, 37° C.
T1 construct: Tubulin is prepared from pig brain; from tissue; host or cells: pig brain
Description: FIG. 1. Study of the innovative effect of compounds of the selection patent on the polymerization of purified tubulin. This is a comparative study of the effect on the polymerization of purified tubulin by compounds of the selection patent compared to that of the compounds of the patent FR 2,921,927. Polymerized tubulin absorbs at 350 nm.
Tubulin is prepared from pig brain according to the purification process described by Williams and Lee (1982). Tubulin polymerization is monitored by turbidimetry at 350 nm with an MC2 spectrophotometer (Safas, Monaco) equipped with a heat-jacketed cuvette holder. The reaction mixture was prepared at 0° C., and contains PEM buffer, 25% glycerol (v/v), 1 mM GTP, and 2.4 μM tubulin. The GTP and the tubulin are added at the last minute. […] The same volume of DMSO alone was used as a negative control. The final volume of the sample is […]. The reaction is initiated by placing the cuvette in the cell compartment of the spectrophotometer thermostated at 37° C. Ice is added 45 minutes later to launch depolymerization in order to confirm the specificity of the signal.

AsPC-1 = experiment: In vitro cytotoxicity study, inhibition of cell growth (MTT); type: cell-based; details: Homo sapiens, ASPC1, AsPC-1, pancreas, 72 hours
Description: as §1, §2
(§11) Cell suspensions for each cancer cell line are prepared in culture medium with a specific density of the specific cell (see the following table). Then, 100 µL of cell suspension is spread per well (plate per one cell line).
as §3, §4, §5, §6, §7, §8, §9, §10

A2058 = experiment: as above; type: cell-based; details: Homo sapiens, A2058, melanoma, 72 hours
Description: as §1, §2, §11, §3, §4, §5, §6, §7, §8, §9, §10

MEWO = experiment: as above; type: cell-based; details: Homo sapiens, melanoma, 72 hours
Description: as §1, §2, §11, §3, §4, §5, §6, §7, §8, §9, §10

T-47D = experiment: as above; type: cell-based; details: Homo sapiens, T47D, breast, 72 hours
Description: as §1, §2, §11, §3, §4, §5, §6, §7, §8, §9, §10

LoVo = experiment: as above; type: cell-based; details: Homo sapiens, colon, 72 hours
Description: as §1, §2, §11, §3, §4, §5, §6, §7, §8, §9, §10

PF382 = experiment: as above; type: cell-based; details: Homo sapiens, PF-382, PF382, lymphoid, 72 hours
Description: as §1, §2, §11, §3, §4, §5, §6, §7, §8, §9, §10

Calu-1 = experiment: as above; type: cell-based; details: Homo sapiens, Calu-1, lung, 72 hours
Description: as §1, §2, §11, §3, §4, §5, §6, §7, §8, §9, §10

BxPC3 = experiment: as above; type: cell-based; details: Homo sapiens, BXPC-3, BxPC3, pancreas, 72 hours
Description: as §1, §2, §11, §3, §4, §5, §6, §7, §8, §9, §10

Capan-1 = experiment: as above; type: cell-based; details: Homo sapiens, Capan-1, pancreas, 72 hours
Description: as §1, §2, §11, §3, §4, §5, §6, §7, §8, §9, §10

PC-3 = experiment: as above; type: cell-based; details: Homo sapiens, PC-3, prostate, 72 hours
Description: as §1, §2, §11, §3, §4, §5, §6, §7, §8, §9, §10

CFPAC-1 = experiment: as above; type: cell-based; details: Homo sapiens, CFPAC-1, pancreas, 72 hours
Description: as §1, §2, §11, §3, §4, §5, §6, §7, §8, §9, §10

COLO-205 = experiment: as above; type: cell-based; details: Homo sapiens, COLO-205, colon, 72 hours
Description: as §1, §2, §11, §3, §4, §5, §6, §7, §8, §9, §10

IPC298 = experiment: as above; type: cell-based; details: Homo sapiens, IPC-298, IPC298, melanoma, 72 hours
Description: as §1, §2, §11, §3, §4, §5, §6, §7, §8, §9, §10

HepG2 = experiment: as above; type: cell-based; details: Homo sapiens, HepG2, liver, 72 hours
Description: as §1, §2, §11, §3, §4, §5, §6, §7, §8, §9, §10

A375 = experiment: as above; type: cell-based; details: Homo sapiens, A-375, A375, melanoma, 72 hours
Description: as §1, §2, §11, §3, §4, §5, §6, §7, §8, §9, §10

T1 sequence (P02550 whole entry): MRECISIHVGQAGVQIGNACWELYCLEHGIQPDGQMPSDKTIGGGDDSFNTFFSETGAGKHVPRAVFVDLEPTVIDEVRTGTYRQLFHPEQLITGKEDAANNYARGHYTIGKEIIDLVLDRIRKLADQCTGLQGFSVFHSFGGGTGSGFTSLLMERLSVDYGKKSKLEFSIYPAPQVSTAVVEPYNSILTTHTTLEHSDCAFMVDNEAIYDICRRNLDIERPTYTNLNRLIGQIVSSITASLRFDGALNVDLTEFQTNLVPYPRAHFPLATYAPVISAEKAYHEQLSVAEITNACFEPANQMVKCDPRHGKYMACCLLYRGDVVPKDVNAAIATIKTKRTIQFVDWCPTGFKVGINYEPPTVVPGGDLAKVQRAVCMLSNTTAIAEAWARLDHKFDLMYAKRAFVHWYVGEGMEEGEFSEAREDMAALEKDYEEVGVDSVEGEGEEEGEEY
T1 sequence (P02554 whole entry): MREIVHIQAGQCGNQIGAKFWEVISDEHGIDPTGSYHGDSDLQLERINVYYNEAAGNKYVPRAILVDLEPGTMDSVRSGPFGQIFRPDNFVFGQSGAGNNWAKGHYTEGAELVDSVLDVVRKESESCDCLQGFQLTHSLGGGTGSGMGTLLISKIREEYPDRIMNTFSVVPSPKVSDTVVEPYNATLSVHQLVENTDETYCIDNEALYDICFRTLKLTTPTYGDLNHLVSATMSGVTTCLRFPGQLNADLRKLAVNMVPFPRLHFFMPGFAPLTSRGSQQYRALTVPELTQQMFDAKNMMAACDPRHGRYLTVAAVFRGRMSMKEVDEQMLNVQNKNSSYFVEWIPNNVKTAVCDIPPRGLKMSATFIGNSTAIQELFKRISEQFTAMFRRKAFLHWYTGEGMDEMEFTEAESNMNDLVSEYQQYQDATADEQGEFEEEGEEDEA

## CNc1nc2ccccc2n2c(Br)cnc12 [CPA 8, 1-Bromo-N-methylimidazo[1,2-a]quinoxalin-4-amine]
Human cancer cell lines; Homo sapiens
  IC50: 2350 nM

## Oc1ccc(-c2cnc3c(N4CCNCC4)nc4ccccc4n23)cc1O [EAPB0 2308, 4-(4-(Piperazin-1-yl)imidazo[1,2-a]quinoxalin-1-yl)benzene-1,2-diol]
Human cancer cell lines; Homo sapiens
  IC50: > 10000 nM

## CNc1nc2ccccc2n2c(-c3cccc(OC)c3)cnc12 [EAPB0503, 1-(3-methoxyphenyl)-N-methylimidazo[1,2-a]quinoxalin-4-amine, reference compound]
Purified tubulin
  Effect on polymerization of purified tubulin (absorbance level at 350 nm): decreases the absorbance level
AsPC-1
  EC50: 2800 nM
A2058
  EC50: 185 nM
MEWO
  EC50: 125 nM
T-47D
  EC50: 198 nM
LoVo
  EC50: 89 nM
PF382
  EC50: 205 nM
Calu-1
  EC50: 196 nM
BxPC3
  EC50: 159 nM
Capan-1
  EC50: 561 nM
PC-3
  EC50: 537 nM
CFPAC-1
  EC50: 598 nM
COLO-205
  EC50: 201 nM
IPC298
  EC50: 469 nM
HepG2
  EC50: 1360 nM
A375
  EC50: 383 nM

## Nc1nc2ccccc2n2c(-c3ccc(O)c(O)c3)cnc12 [EAPB02302, 1-(3,4-Dihydroxyphenyl)imidazo[1,2-a]quinoxalin-4-amine]
AsPC-1
  EC50: 1820 nM
A2058
  EC50: 13 nM
MEWO
  EC50: 10 nM
T-47D
  EC50: 78 nM
LoVo
  EC50: 44 nM
PF382
  EC50: 29 nM
Calu-1
  EC50: 14 nM
BxPC3
  EC50: 25 nM
Capan-1
  EC50: 206 nM
PC-3
  EC50: 56 nM
CFPAC-1
  EC50: 67 nM
COLO-205
  EC50: 44 nM
IPC298
  EC50: 75 nM
HepG2
  EC50: 267 nM
A375
  EC50: 60 nM

## CNc1nc2ccccc2n2c(-c3ccc(OC)c(OC)c3)cnc12 [EAPB 02203, 1-(3,4-Dimethoxyphenyl)-N-methylimidazo[1,2-a]quinoxalin-4-amine]
Human cancer cell lines; Homo sapiens
  IC50: 193 nM

## CNc1nc2cc(OC(F)(F)F)ccc2n2c(-c3ccc(OC)c(OC)c3)cnc12 [EAPB 02203-7b, 1-(3,4-Dimethoxyphenyl)-N-methyl-7-(trifluoromethoxy)imidazo[1,2-a]quinoxalin-4-amine]
Human cancer cell lines; Homo sapiens
  IC50: 3490 nM

## CNc1nc2ccc(C(F)(F)F)cc2n2c(-c3ccc(OC)c(OC)c3)cnc12 [EAPB 02203-8a, 1-(3,4-Dimethoxyphenyl)-N-methyl-8-(trifluoromethyl)imidazo[1,2-a]quinoxalin-4-amine]
Human cancer cell lines; Homo sapiens
  IC50: > 10000 nM

## COc1ccc(-c2cnc3c(NCCNC(=O)OC(C)(C)C)nc4ccccc4n23)cc1OC [EAPB 02211, tert-Butyl (2-((1-(3,4-dimethoxyphenyl)imidazo[1,2-a]quinoxalin-4-yl)amino)ethyl)carbamate]
Human cancer cell lines; Homo sapiens
  IC50: > 10000 nM

## COc1ccc(-c2cnc3c(NCCCCCCNC(=O)OC(C)(C)C)nc4ccccc4n23)cc1OC [EAPB 02212, tert-Butyl (6-((1-(3,4-dimethoxyphenyl)imidazo[1,2-a]quinoxalin-4-yl)amino)hexyl)carbamate]
Human cancer cell lines; Homo sapiens
  IC50: > 10000 nM

## COc1ccc(-c2cnc3c(N4CCN(C(=O)OC(C)(C)C)CC4)nc4ccccc4n23)cc1OC [EAPB 02213, tert-Butyl 4-(1-(3,4-dimethoxyphenyl)imidazo[1,2-a]quinoxalin-4-yl)piperazine-1-carboxylate]
Human cancer cell lines; Homo sapiens
  IC50: > 10000 nM

## COc1ccc(-c2cnc3c(NCCCNC(=O)OC(C)(C)C)nc4ccccc4n23)cc1OC [EAPB 02214, tert-Butyl (3-((1-(3,4-dimethoxyphenyl)imidazo[1,2-a]quinoxalin-4-yl)amino)propyl)carbamate]
Human cancer cell lines; Homo sapiens
  IC50: > 10000 nM

## COc1ccc(-c2cnc3c(NC(C)C(=O)OC(C)(C)C)nc4ccccc4n23)cc1OC (stereo not drawn) [EAPB 02218]
Human cancer cell lines; Homo sapiens
  IC50: > 10000 nM

## COc1ccc(-c2cnc3c(NC(C(=O)OC(C)(C)C)C(C)C)nc4ccccc4n23)cc1OC (stereo not drawn) [EAPB 02220]
Human cancer cell lines; Homo sapiens
  IC50: > 10000 nM

## COc1ccc(-c2cnc3c(NC(CC(C)C)C(=O)OC(C)(C)C)nc4ccccc4n23)cc1OC (stereo not drawn) [EAPB 02222]
Human cancer cell lines; Homo sapiens
  IC50: > 10000 nM

## CNc1nc2cc(C(F)(F)F)ccc2n2c(-c3ccc(O)c(O)c3)cnc12 [EAPB 02303-7a, 4-(4-(Methylamino)-7-(trifluoromethyl)imidazo[1,2-a]quinoxalin-1-yl)benzene-1,2-diol]
Human cancer cell lines; Homo sapiens
  IC50: 6910 nM

## CNc1nc2cc(OC(F)(F)F)ccc2n2c(-c3ccc(O)c(O)c3)cnc12 [EAPB 02303-7b, 4-(4-(Methylamino)-7-(trifluoromethoxy)imidazo[1,2-a]quinoxalin-1-yl)benzene-1,2-diol]
Human cancer cell lines; Homo sapiens
  IC50: 199 nM

## CNc1nc2cc(C#N)ccc2n2c(-c3ccc(O)c(O)c3)cnc12 [EAPB 02303-7c]
Human cancer cell lines; Homo sapiens
  IC50: 6390 nM

## CNc1nc2ccc(C(F)(F)F)cc2n2c(-c3ccc(O)c(O)c3)cnc12 [EAPB 02303-8a, 4-(4-(Methylamino)-8-(trifluoromethyl)imidazo[1,2-a]quinoxalin-1-yl)benzene-1,2-diol]
Human cancer cell lines; Homo sapiens
  IC50: > 10000 nM

## CNc1nc2ccc(OC(F)(F)F)cc2n2c(-c3ccc(O)c(O)c3)cnc12 [EAPB 02303-8b]
Human cancer cell lines; Homo sapiens
  IC50: > 10000 nM

## NCCNc1nc2ccccc2n2c(-c3ccc(O)c(O)c3)cnc12 [EAPB 02306, 4-(4-((2-Aminoethyl)amino)imidazo[1,2-a]quinoxalin-1-yl)benzene-1,2-diol]
Human cancer cell lines; Homo sapiens
  IC50: 1280 nM

## NCCNc1nc2ccccc2n2c(-c3ccc(O)c(O)c3)cnc12 [EAPB 02306s, 2-((1-(3,4-Dihydroxyphenyl)imidazo[1,2-a]quinoxalin-4-yl)amino)ethylammonium chloride]
Human cancer cell lines
  IC50: 1700 nM

## NCCCCCCNc1nc2ccccc2n2c(-c3ccc(O)c(O)c3)cnc12 [EAPB 02307, 4-(4-((6-Aminohexyl)amino)imidazo[1,2-a]quinoxalin-1-yl)benzene-1,2-diol]
Human cancer cell lines; Homo sapiens
  IC50: 5690 nM

## NCCCNc1nc2ccccc2n2c(-c3ccc(O)c(O)c3)cnc12 [EAPB 02309, 4-(4-((3-Aminopropyl)amino)imidazo[1,2-a]quinoxalin-1-yl)benzene-1,2-diol]
Human cancer cell lines; Homo sapiens
  IC50: 5590 nM

## O=C(CNc1nc2ccccc2n2c(-c3ccc(O)c(O)c3)cnc12)NC(CO)(CO)CO [EAPB 02310]
Human cancer cell lines; Homo sapiens
  IC50: > 10000 nM

## CNc1nc2ccccc2n2ccnc12 [PED 26, N-Methylimidazo[1,2-a]quinoxalin-4-amine]
Human cancer cell lines; Homo sapiens
  IC50: > 10000 nM
